Assay results from patent US10375956B2, “Herbicidally active 2-(substituted-phenyl)-cyclopentane-1,3-dione compounds and derivatives thereof” (Syngenta Limited, priority 2013, dated 2019).
Read-outs that look alike come from different tables or passages of the source.

How the values were obtained:
Type in all cases: in vivo
[1] = tested on: Alopecurus myosuroides (ALOMY); experiment: Test 1 glasshouse assay, post-emergence herbicidal activity; conditions: 312 h, after 13 days, read-out: Percentage phytotoxicity ALOMY
In short: (§1)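 Plants sprayed 8 days after sowing with active ingredient in acetone/water (50:50) containing 0.5% Tween 20, grown in glasshouse at 24/16°C day/night, 14 h light, 65% humidity. Phytotoxicity scored visually after 13 days as percentage damage (100% = total damage; 0% = none).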

[2] = tested on: Echinochloa crus-galli (ECHCG); experiment: as above; conditions: 312 h, after 13 days, read-out: Percentage phytotoxicity ECHCG
In short: as §1

[3] = tested on: Alopecurus myosuroides (ALOMY); experiment: Test 1 glasshouse assay, pre-emergence herbicidal activity; conditions: 312 h, visual evaluation after 13 days, read-out: Percentage phytotoxicity ALOMY
In short: (§2)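 Visual percentage damage scores, assessed 13 days after treatment, where 0% means no damage and 100% total plant damage. Unformulated compound in acetone/water (50:50) with 0.5% Tween 20 was sprayed onto pots one day after sowing; glasshouse conditions 24/16° C, 14 hours light, 65% humidity.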

[4] = tested on: Amaranthus retroflexus (AMARE); experiment: as above; conditions: 312 h, visual evaluation after 13 days, read-out: Percentage phytotoxicity AMARE
In short: as §2

[5] = tested on: Abutilon theophrasti (ABUTH); experiment: as above; conditions: 312 h, visual evaluation after 13 days, read-out: Percentage phytotoxicity ABUTH
In short: as §2

Setaria faberi (SETFA) = experiment: as above; conditions: 312 h, visual evaluation after 13 days, read-out: Percentage phytotoxicity SETFA
In short: as §2

[6] = tested on: Zea mays (ZEAMX, corn/maize); experiment: as above; conditions: 312 h, visual evaluation after 13 days, read-out: Percentage phytotoxicity ZEAMX
In short: as §2

Lolium perenne (LOLPE) = experiment: Test 2 glasshouse assay (IF50 formulation, X-77), pre-emergence herbicidal activity; conditions: 480 h, 250 g/ha, 20DAA, read-out: Percentage phytotoxicity LOLPE
Description: (§3) Seeds of a variety of monocotyledonous and dicotyledonous test plants are sown in standard soil in pots. The plants are cultivated for one day (for pre-emergence) or for about 12 days (for post-emergence) under controlled conditions in a glasshouse (warm climate species at 24/18° C., cool climate species at 20/16° C., both at day/night; 16 hours light; 65% humidity).
(§4) An “instant formulation”, known as the “IF50”, containing 50 g/liter (i.e. 5% w/v) of the “technical” (i.e. unformulated) active ingredient is prepared by dissolving the active ingredient in a mixture of organic solvents and emulsifier, details of which are provided in the Table below. This IF50 is then mixed with a small, variable amount of acetone to aid dissolution, before addition of a 0.2% v/v aqueous solution of the adjuvant X-77 (which is a mixture of alkyl aryl polyoxyethylene glycols and free fatty acids in isopropanol, CAS Registry number 11097-66-8), as the aqueous diluent, to form an aqueous spray solution which contains a predetermined concentration of the active ingredient (which varies depending on the application rate of the active ingredient to the plants) and 0.2% v/v of the adjuvant X-77. This aqueous spray solution is then sprayed onto the plants, after one day's cultivation (for pre-emergence), or after about 12 days' cultivation (range=10-13 days) (for post-emergence).
(§5) The test plants are then grown on, in a glasshouse (greenhouse) under controlled conditions (warm climate species at 24/18° C., cool climate species at 20/16° C., both at day/night; 16 hours light; 65% humidity) and are watered twice daily. 15 days after application of the test herbicide (15DAA) (for post-emergence), and 20 days after application of the test herbicide (20DAA) (for pre-emergence), the test plants are evaluated visually, and an assessed percentage phytotoxicity score is given for each herbicidal application on each plant species (with 100%=total damage to plant; 0%=no damage to plant).
Cool climate (“cool season”) grassy monocotyledonous weeds: Alopecurus myosuroides (ALOMY), Avena fatua (AVEFA), Lolium perenne (LOLPE).

[7] = tested on: Glycine max (GLXMA, soybean); experiment: Test 2 glasshouse assay (IF50 formulation, X-77), post-emergence herbicidal activity; conditions: 360 h, 15 DAA, visual score, read-out: Post-emergence herbicidal activity (percentage phytotoxicity) GLXMA; for plant injury at 30 g/ha: application rate 30 g/ha; for plant injury at 250 g/ha: application rate 250 g/ha; for plant injury at 125 g/ha: application rate 125 g/ha
Description: as §3, §4, §5
(§6) Cool climate crop plants: Triticum aestivum (TRZAW, winter wheat), Brassica napus (BRSNN, rape, also called oilseed rape or rapeseed), Beta vulgaris (BEAVA, sugarbeet). Warm climate crop plants: Glycine max (GLXMA, soybean).

[8] = tested on: Beta vulgaris (BEAVA, sugarbeet); experiment: as above; conditions: 360 h, 15 DAA, visual score, read-out: Post-emergence herbicidal activity (percentage phytotoxicity) BEAVA; for plant injury at 30 g/ha: application rate 30 g/ha; for plant injury at 250 g/ha: application rate 250 g/ha; for plant injury at 125 g/ha: application rate 125 g/ha
Description: as §3, §4, §5, §6

[9] = tested on: Brassica napus (BRSNN, rape); experiment: as above; conditions: 360 h, 15 DAA, visual score, read-out: Post-emergence herbicidal activity (percentage phytotoxicity) BRSNN; for plant injury at 30 g/ha: application rate 30 g/ha; for plant injury at 250 g/ha: application rate 250 g/ha; for plant injury at 125 g/ha: application rate 125 g/ha
Description: as §3, §4, §5, §6

[10] = tested on: Triticum aestivum (TRZAW, winter wheat); experiment: as above; conditions: 360 h, 15 DAA, visual score, read-out: Post-emergence herbicidal activity (percentage phytotoxicity) TRZAW; for plant injury at 30 g/ha: application rate 30 g/ha; for plant injury at 250 g/ha: application rate 250 g/ha; for plant injury at 125 g/ha: application rate 125 g/ha
Description: as §3, §4, §5, §6

[11] = post-emergence (Example 1B Table 1)
[12] = post-emergence (Example 1B Table 2)

SMILES	pest or weed control at 30 g/ha [1, 11] [%]	pest or weed control at 250 g/ha [1, 11] [%]	pest or weed control at 62.5 g/ha [1, 12] [%]	pest or weed control at 250 g/ha [1, 12] [%]	pest or weed control at 30 g/ha [2, 11] [%]	pest or weed control at 250 g/ha [2, 11] [%]	pest or weed control at 62.5 g/ha [2, 12] [%]	pest or weed control at 250 g/ha [2, 12] [%]	pest or weed control at 250 g/ha [3] [%]	pest or weed control at 250 g/ha [4] [%]	pest or weed control at 250 g/ha [5] [%]	pest or weed control at 250 g/ha (Setaria faberi (SETFA)) [%]	pest or weed control at 250 g/ha [6] [%]	pest or weed control at 250 g/ha (Lolium perenne (LOLPE)) [%]	plant injury at 30 g/ha [7] [%]	plant injury at 250 g/ha [7] [%]	plant injury at 30 g/ha [8] [%]	plant injury at 250 g/ha [8] [%]	plant injury at 30 g/ha [9] [%]	plant injury at 30 g/ha [10] [%]	other results
C#CCC1CC(=O)C(c2c(F)cc(-c3ccc(Cl)cn3)cc2Cl)C1=O (centres unmarked) [Compound A8]	100	100	80	100	100	100	100	100	90	90	0	100	90	80	20	40	10	60	70	30	plant injury at 250 g/ha [9]: 80%; plant injury at 250 g/ha [10]: 90%
C#CCC1CC(=O)C(c2c(Cl)cc(-c3ccc(Cl)cn3)cc2OC)C1=O (centres unmarked) [Compound A10]	90	100	100	100	100	100	100	100	100	100	60	100	100	70	40	70	60	80	80	70	plant injury at 250 g/ha [9]: 80%; plant injury at 250 g/ha [10]: 80%
C#CCC1CC(=O)C(c2c(Cl)cc(-c3ccc(Cl)cc3)cc2OC)C1=O (centres unmarked) [Compound A11, 2-[2-chloro-4-(4-chlorophenyl)-6-methoxyphenyl]-4-prop-2-ynylcyclopentane-1,3-dione]	70	100			100	100			100	80	40	100	100	60	0	20	20	70	30	60	plant injury at 250 g/ha [9]: 70%; plant injury at 250 g/ha [10]: 90%
C#CCC1CC(=O)C(c2c(Cl)cc(-c3ccc(F)cc3F)cc2OC)C1=O (centres unmarked) [Compound A12]	80	100	60	100	100	100	100	100	90	100	80	100	100	100	0		40		50	40	plant injury at 125 g/ha [7]: 0%; plant injury at 125 g/ha [8]: 40%; plant injury at 125 g/ha [9]: 60%; plant injury at 125 g/ha [10]: 80%
C#CCC1CC(=O)C(c2c(Cl)cc(-c3ccc(F)c(F)c3)cc2OC)C1=O (centres unmarked) [Compound A13]	90	100	100	100	100	100	100	100	90	100	80	100	100	100	20		60		70	40	plant injury at 125 g/ha [7]: 30%; plant injury at 125 g/ha [8]: 70%; plant injury at 125 g/ha [9]: 80%; plant injury at 125 g/ha [10]: 80%
C#CCC1CC(=O)C(c2c(F)cc(-c3ccc(Cl)cc3)cc2OC)C1=O (centres unmarked) [Compound A14]		90		90		100		100	100	90	20	100	100	70							pest or weed control at 62.5 g/ha [1, 11]: 70%; pest or weed control at 62.5 g/ha [2, 11]: 100%; plant injury at 125 g/ha [7]: 0%; plant injury at 125 g/ha [8]: 10%; plant injury at 125 g/ha [9]: 0%; plant injury at 125 g/ha [10]: 40%
